Test results taken from US20160106721A1, “HUMAN THERAPEUTIC AGENTS” (Life Plus, LLC, priority 2014, published 2016).

Legend:
[1] = tested on: human lung cancer cells (H358); test: cell death in lung cancer spheroids; type: cell-based; settings: 24 hour exposure, increasing doses
Experimental: (§1) The respective cells were individually cultured in a growth medium prepared using RPMI-1640 medium containing 11.1 mM D-glucose with 10% fetal bovine serum, 10 mM HEPES, 2 mM L-glutamine, 1 mM sodium pyruvate, 0.05 mM 2-mercaptoethanol, and Antibiotic-Antimycotic. These cells were maintained in T75 tissue culture flasks in a humidified incubator at 37° C. and 5% CO2. The media were changed on a third day after cell plating, and the cells were passaged on day 5 by trypsinization.
(§2) Custom-made micromolds with 100 μm diameter wells were loaded with the cells (U.S. Pat. No. 8,735,154, incorporated by reference herein). The media were changed every day by partial replacement. Cell aggregates were allowed to form in the micromolds for 72 hours and then were transferred to a 100 mm non-treated tissue culture dishes for 3 additional days. The spheroids were passed through 70 μm and 100 μm cell strainers (#3431751 and #43152, Corning, Tewksbury, Mass.) and maintained in HEPES Balanced Salt Solution comprised of: 20 mM HEPES, 114 mM NaCl, 4.7 mM KCl, 1.2 mM KH2PO4, 1.16 mM MgSO4, 2.5 mM CaCl2, 25.5 mM NaHCO3 and 0.2% bovine serum albumin (fatty acid free), pH 7.2.
The lymphomas treatment methods used were identical to those described in Example 2 relative to the pediatric leukemia cells, whereas the lung cancer treatment method was the same as described in Example 1.

[2] = tested on: human ovarian cancer cells (A1847); test: cell death in ovarian cancer spheroids; type: cell-based; settings: 24 hour exposure, increasing doses
Experimental: as §1, §2
(§3) The cells were treated and tested as set forth in Example 1.

[3] = tested on: human prostate cancer cells (22rv1); test: cell death in prostate cancer spheroids; type: cell-based; settings: 24 hour exposure, increasing doses
Experimental: as §1, §2, §3

ovarian cancer cells = settings: low doses of doxorubicin alone (up to 0.158 μM)
Experimental: In this test, the synergism of GZ17-6.02 with doxorubicin (a common chemotherapy drug) was tested on ovarian cancer cells. In this test, increasing doses of doxorubicin were administered to ovarian cancer spheroids and cell deaths were measured, as described in Example 1. The protocol involved testing doxorubicin alone at various dosages (FIG. 8, doxorubicin alone—closed circles), with comparative tests using the various dosages of doxorubicin in combination with either 0.2 mg/mL (FIG. 8 open circles) or 0.4 mg/mL (FIG. 8 closed triangles) GZ17-6.02. Additionally, the induced cell death results from use of 0.2 mg/mL GZ17-6.02 alone (FIG. 8, line A) and 0.4 mg/mL GZ17-6.02 alone (FIG. 8, line B) were determined.

Row | SMILES | cell death / anticancer effect (cell number) [1] | cell death / anticancer effect (cell number) [2] | cell death / anticancer effect (cell number) [3] | cell death, doxorubicin alone (ovarian cancer cells)
1 | COc1ccc2c3c([nH]c2c1)[C@@H](C)NCC3 [tetrahydro-harmine] | demonstrated anticancer effects | demonstrated anticancer effects | demonstrated anticancer effects | 
2 | COc1ccc2c3c([nH]c2c1)C(C)=NCC3 [harmaline] | demonstrated anticancer effects | demonstrated anticancer effects | demonstrated anticancer effects | 
3 | CC1=NCCc2c1[nH]c1cc(O)ccc21.Cl [harmalol hydrochloride] | demonstrated anticancer effects | demonstrated anticancer effects | demonstrated anticancer effects | 
4 | COc1ccc(CO)cc1O [isovanillyl alcohol] | demonstrated anticancer effects | demonstrated anticancer effects | demonstrated anticancer effects | 
5 | COc1cccc2c1C(=O)c1c(O)c3c(c(O)c1C2=O)C[C@@](O)(C(=O)CO)C[C@@H]3O[C@H]1C[C@H](N)[C@H](O)[C@H](C)O1 [doxorubicin] |  |  |  | ineffective
6 | COc1ccc(C(=O)O)cc1O [isovanillic acid] | demonstrated anticancer effects | demonstrated anticancer effects | demonstrated anticancer effects | 
7 | Cc1nccc2c1[nH]c1cc(O)ccc12.Cl [harmole hydrochloride] | demonstrated anticancer effects | demonstrated anticancer effects | demonstrated anticancer effects | 
8 | COc1cccc(C=O)c1O [O-vanillin] | demonstrated anticancer effects | demonstrated anticancer effects | demonstrated anticancer effects | 
9 | COc1cc(C=O)ccc1O [vanillin] | demonstrated anticancer effects | demonstrated anticancer effects | demonstrated anticancer effects | 
